These results are taken from PMC12593409, “Heterochiral and Heterotypic Self-Assembly of Intrinsically Disordered Peptides Confers Peptide Supercoils with Exceptional Proteolytic Stability” (Journal of the American Chemical Society, 2025).

Like-named read-outs stand apart in the source and are kept apart here. Non-standard residues stand in square brackets, D forms with d. Residues, ends and D or L forms follow the SMILES beside them. *: point of attachment. Acetyl(1-pyrenyl) = O=C(Cc1ccc2ccc3cccc4ccc1c2c34)*; d(pY) = N[C@H](Cc1ccc(OP(=O)(O)O)cc1)C(=O)O; pY = N[C@@H](Cc1ccc(OP(=O)(O)O)cc1)C(=O)O

In data set [1] the target is proteinase K (Parengyodontium album, UniProt P06873). The data set is described as follows: Proteolytic stability against proteinase K, followed by LC/MS. The method, then:
At designated time points, we quenched the reactions and analyzed them by LC/MS (Figures S34, S52–S53, and Table S1).
Proteinase K Treatment: To 200 µL solutions containing peptides 1, 2, 3, 4, and their mixtures (1/2, 1/4, 3/2, 3/4) in double-distilled water, 2 µL of a 100 mg/mL proteinase K stock solution was added to achieve a final concentration of 1 mg/mL. The reactions were incubated at 37 °C. For controls, 40 µL aliquots were withdrawn from each solution prior […]
were rapidly frozen in liquid nitrogen to stop the reaction. Samp les were then lyophilized at −80 °C, reconstituted in 0.1% TFA in H2O/acetonitrile (1:1 v/v), filtered, and analyzed […]
LC/MS analysis was performed with solvent A (water + 0.1% formic acid) and solvent B (acetonitrile + 0.1% formic acid) with a gradient program using the following separation […]
13.1 min 95%A, 5%B; 14 min 95%A, 5%B. The mass spectrometer was operated in positive ion mode, scanning a range of 50 –3000 m/z.

Data set [2] relates to alkaline phosphatase (ALP). The data set is described as follows: in vitro. The conditions noted are these: alkaline phosphatase (ALP, 1 U/mL).
From the text: (§1) (D) Kinetics of ALP-mediated dephosphorylation under similar conditions using 1 U/mL ALP.
(§2) To further validate the structural hypothesis, we performed enzymatic assays using ALP, which removes phosphate groups from both D- and L-tyrosines and has been widely used to explore enzyme-instructed self-assembly (EISA). , This setup isolates Pyn-EEEEEpY as the reactive component, allowing us to assess the impact of coassembly with Pyn-KKKKKK on dephosphorylation kinetics. Using the same protocol as the protease experiments, we measured the rate of dephosphorylation for Pyn-EEEEEpY monomers and their homo- and heterochiral mixtures with two equivalents of Pyn-KKKKKK (Figure S54 and Table S2).
In data set [3] the test system is alkaline phosphatase (ALP). The conditions noted are these: 1 U/mL ALP, 37 °C, neutral pH, monomeric peptide, LC/MS.
From the text: as §1, §2

Chain of proteinase K (P06873 106-384): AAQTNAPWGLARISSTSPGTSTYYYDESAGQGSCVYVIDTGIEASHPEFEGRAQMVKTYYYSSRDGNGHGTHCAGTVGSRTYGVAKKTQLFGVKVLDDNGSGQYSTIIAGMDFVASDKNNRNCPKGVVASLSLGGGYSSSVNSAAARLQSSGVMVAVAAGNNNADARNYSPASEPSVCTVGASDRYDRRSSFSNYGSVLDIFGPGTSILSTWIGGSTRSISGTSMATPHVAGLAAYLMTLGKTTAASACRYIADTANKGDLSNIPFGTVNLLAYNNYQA

As usually defined, the half-life is the time in which the quantity being followed falls by half. High values mean slow decline, low ones rapid decline. Take `O=C(O)CC[C@H](NC(=O)Cc1ccc2ccc3cccc4ccc1c2c34)C(=O)N[C@@H](CCC(=O)O)C(=O)N[C@@H](CCC(=O)O)C(=O)N[C@@H](CCC(=O)O)C(=O)N[C@@H](CCC(=O)O)C(=O)N[C@@H](Cc1ccc(OP(=O)(O)O)cc1)C(=O)O` [compound 1, Pyn-(L)-EEEEEpY] ({Acetyl(1-pyrenyl)}-EEEEE[pY]-OH): the “time to almost complete proteolysis” value in data set [1] (1 mg/mL proteinase K, 37 °C, neutral pH, 1 mM monomeric peptide, LC/MS) is at most 30 min. The “thalf of Pyn-(L)-EEEEEpY (1) in proteinase K digestion” value (“thalf of Pyn-(L)-EEEEEpY” below) in data set [1] (1 mg/mL proteinase K, 37 °C, neutral pH, double-distilled water, 1 mM 1 alone or 500 μM 1 with 2 equiv of 2 or 4, sampled 5 min, 30 min, 2 h, 24 h, kinetic analysis of HPLC peak areas (LC/MS)) was “approximately 10 min”. This molecule returned a half-life at 1 mM in data set [1] (isolated enzyme proteinase k) of 10 min. Further, the half-life in data set [2] is 4.7 min. In data set [3], the “time to complete dephosphorylation” value is reported as at most 30 min.

On to Pyn-(L)-EEEEEpY/Pyn-(L)-KKKKKK [1/4], for which, in data set [1], the “increase in half-life compared to the L-peptide (1) alone” value is given as 287 fold and the “thalf of Pyn-(L)-EEEEEpY” value came out at 2872 min.

Take `NCCCC[C@H](NC(=O)[C@H](CCCCN)NC(=O)[C@H](CCCCN)NC(=O)[C@H](CCCCN)NC(=O)[C@H](CCCCN)NC(=O)[C@H](CCCCN)NC(=O)Cc1ccc2ccc3cccc4ccc1c2c34)C(=O)O` [compound 4, Pyn-(L)-KKKKKK]: the “proteolysis of Pyn-(L)-KKKKKK (4) alone” value in data set [1] (1 mg/mL proteinase K, 37 °C, peptide alone, LC/MS (Figure S35B)) is reported as “largely resistant to proteolysis”.

As for `O=C(O)CC[C@@H](NC(=O)Cc1ccc2ccc3cccc4ccc1c2c34)C(=O)N[C@H](CCC(=O)O)C(=O)N[C@H](CCC(=O)O)C(=O)N[C@H](CCC(=O)O)C(=O)N[C@H](CCC(=O)O)C(=O)N[C@H](Cc1ccc(OP(=O)(O)O)cc1)C(=O)O` [compound 3, Pyn-(D)-eeeeepy] ({Acetyl(1-pyrenyl)}-[dE][dE][dE][dE][dE][d(pY)]-OH), the half-life in data set [2] was 9.6 min. Further, the “time to complete dephosphorylation” value in data set [3] is recorded as at most 30 min.

Turning to Pyn-(L)-EEEEEpY/Pyn-(D)-kkkkkk [1/2], in data set [1], the “cleavage slower than for Pyn-(L)-EEEEEpY (1) alone” value is “over 360 times”, the “state of Pyn-(L)-EEEEEpY (1) under proteinase K for up to 24 h” value is “remained largely intact” and the “thalf of Pyn-(L)-EEEEEpY” value is reported as above 3600 min.
